Laboratory results taken from ChEMBL document CHEMBL3046697, “Syntheses, antifeedant activity, and QSAR analysis of new oxa(thia)diazolyl 3(2H)-pyridazinones” (J Agric Food Chem, 2005).

Legend:
[1] = Hydrophobicity, log P of the compound; format: physicochemical; settings: octanol/water
Mythimna separata = assay: Antifeedant activity against second-instar larvae of Mythimna separata (Oriental armyworm) in compound treated leaves assessed as growth inhibition measured after 5 days by chronic growth bioassay; format: functional, organism-based; settings: 120 h

`CC(C)(C)n1ncc(OCc2nnc(-c3ccccc3F)o2)c(Cl)c1=O` showed a logP [1] of 2.89, an EC50 (Mythimna separata; read-out: EC50) of 16.8 µg/mL and an EC50 (Mythimna separata; read-out: pEC50 (converted)) of 16.8 µM.
In the case of `CCCCn1ncc(OCc2nnc(-c3ccc(F)cc3)o2)c(Cl)c1=O`, the EC50 (Mythimna separata; read-out: EC50) is reported as 162 µg/mL and the EC50 (Mythimna separata; read-out: pEC50 (converted)) is reported as 161 µM.
For `CCCCn1ncc(OCc2nnc(-c3ccc(Cl)cc3)o2)c(Cl)c1=O`, the EC50 (Mythimna separata; read-out: EC50) was 224 µg/mL and the EC50 (Mythimna separata; read-out: pEC50 (converted)) was 223 µM.
`CCn1ncc(OCc2nnc(-c3ccccc3)o2)c(Cl)c1=O` showed an EC50 (Mythimna separata; read-out: EC50) of over 300 µg/mL and an EC50 (Mythimna separata; read-out: pEC50 (converted)) of over 300 µM.
`CCn1ncc(OCc2nnc(-c3ccc(F)cc3)o2)c(Cl)c1=O` gave an EC50 (Mythimna separata; read-out: EC50) of over 300 µg/mL and an EC50 (Mythimna separata; read-out: pEC50 (converted)) of over 300 µM.
`CC(C)(C)n1ncc(OCc2nnc(-c3c(F)c(F)c(F)c(F)c3F)o2)c(Cl)c1=O` gave a logP [1] of 3.06, an EC50 (Mythimna separata; read-out: EC50) of 271 µg/mL and an EC50 (Mythimna separata; read-out: pEC50 (converted)) of 271 µM.
For `CC(C)(C)n1ncc(OCc2nnc(-c3cc(F)c(F)cc3F)o2)c(Cl)c1=O`, the logP [1] was 2.96, the EC50 (Mythimna separata; read-out: EC50) was 75.7 µg/mL and the EC50 (Mythimna separata; read-out: pEC50 (converted)) was 75.7 µM.
Compound `COc1c(F)c(F)cc(-c2nnc(COc3cnn(C(C)(C)C)c(=O)c3Cl)o2)c1F` has an EC50 (Mythimna separata; read-out: EC50) of over 300 µg/mL and an EC50 (Mythimna separata; read-out: pEC50 (converted)) of over 300 µM.
With `CC(C)(C)n1ncc(OCc2nnc(-c3ccc(Cl)cc3F)o2)c(Cl)c1=O` the logP [1] was 3.23, the EC50 (Mythimna separata; read-out: EC50) was 10.4 µg/mL and the EC50 (Mythimna separata; read-out: pEC50 (converted)) was 10.4 µM.
For `CC(C)(C)n1ncc(OCc2nnc(-c3cc(F)c(F)c(F)c3F)o2)c(Cl)c1=O`, the logP [1] was 3.18, the EC50 (Mythimna separata; read-out: EC50) was 241 µg/mL and the EC50 (Mythimna separata; read-out: pEC50 (converted)) was 240 µM.
Compound `CC(C)(C)n1ncc(OCc2nnc(-c3ccc(C(F)(F)F)cc3)o2)c(Cl)c1=O` has a logP [1] of 3.66, an EC50 (Mythimna separata; read-out: EC50) of 34.1 µg/mL and an EC50 (Mythimna separata; read-out: pEC50 (converted)) of 33.8 µM.
Work on `Cc1nnc(COc2cnn(C(C)(C)C)c(=O)c2Cl)o1` yielded an EC50 (Mythimna separata; read-out: EC50) of over 300 µg/mL and an EC50 (Mythimna separata; read-out: pEC50 (converted)) of over 300 µM.
`CC(C)(C)n1ncc(OCc2nnc(-c3ccco3)o2)c(Cl)c1=O` gave an EC50 (Mythimna separata; read-out: EC50) of over 300 µg/mL and an EC50 (Mythimna separata; read-out: pEC50 (converted)) of over 300 µM.
In the case of `CC(C)(C)n1ncc(OCc2nnc(-c3cccs3)o2)c(Cl)c1=O`, the EC50 (Mythimna separata; read-out: EC50) is reported as over 300 µg/mL and the EC50 (Mythimna separata; read-out: pEC50 (converted)) is reported as over 300 µM.
Compound `O=c1c(Cl)c(OCc2nnc(-c3ccccc3)o2)cnn1-c1ccccc1` has an EC50 (Mythimna separata; read-out: EC50) of 91.5 µg/mL and an EC50 (Mythimna separata; read-out: pEC50 (converted)) of 91.4 µM.
Work on `CCCCn1ncc(OCc2nnc(-c3ccccc3)o2)c(Cl)c1=O` yielded an EC50 (Mythimna separata; read-out: EC50) of over 300 µg/mL and an EC50 (Mythimna separata; read-out: pEC50 (converted)) of over 300 µM.
`CC(C)(C)n1ncc(OCc2nnc(-c3cc(F)c(Cl)cc3Cl)o2)c(Cl)c1=O` showed a logP [1] of 3.36, an EC50 (Mythimna separata; read-out: EC50) of 23.1 µg/mL and an EC50 (Mythimna separata; read-out: pEC50 (converted)) of 23.1 µM.
Compound `CC(C)(C)n1ncc(SCc2nnc(-c3ccccc3)o2)c(Cl)c1=O` has an EC50 (Mythimna separata; read-out: EC50) of over 300 µg/mL and an EC50 (Mythimna separata; read-out: pEC50 (converted)) of over 300 µM.
For `CC(C)(C)n1ncc(SCc2nnc(-c3ccc(F)cc3)o2)c(Cl)c1=O`, the EC50 (Mythimna separata; read-out: EC50) was 150 µg/mL and the EC50 (Mythimna separata; read-out: pEC50 (converted)) was 151 µM.
For `CC(C)(C)n1ncc(SCc2nnc(-c3cccc(F)c3)o2)c(Cl)c1=O`, the EC50 (Mythimna separata; read-out: EC50) was 243 µg/mL and the EC50 (Mythimna separata; read-out: pEC50 (converted)) was 243 µM.
Work on `CC(C)(C)n1ncc(SCc2nnc(-c3ccccc3F)o2)c(Cl)c1=O` yielded an EC50 (Mythimna separata; read-out: EC50) of 269 µg/mL and an EC50 (Mythimna separata; read-out: pEC50 (converted)) of 270 µM.
In the case of `CC(C)(C)n1ncc(SCc2nnc(-c3ccc(Cl)cc3)o2)c(Cl)c1=O`, the EC50 (Mythimna separata; read-out: EC50) is reported as 180 µg/mL and the EC50 (Mythimna separata; read-out: pEC50 (converted)) is reported as 180 µM.
In the case of `Cc1cc(C)cc(-c2nnc(CSc3cnn(C(C)(C)C)c(=O)c3Cl)o2)c1`, the EC50 (Mythimna separata; read-out: EC50) is reported as over 300 µg/mL and the EC50 (Mythimna separata; read-out: pEC50 (converted)) is reported as over 300 µM.
Compound `Cc1cccc(-c2nnc(CSc3cnn(C(C)(C)C)c(=O)c3Cl)o2)c1` has an EC50 (Mythimna separata; read-out: EC50) of over 300 µg/mL and an EC50 (Mythimna separata; read-out: pEC50 (converted)) of over 300 µM.
`CC(C)(C)n1ncc(SCc2nnc(-c3ccc([N+](=O)[O-])cc3)o2)c(Cl)c1=O` gave an EC50 (Mythimna separata; read-out: EC50) of over 300 µg/mL and an EC50 (Mythimna separata; read-out: pEC50 (converted)) of over 300 µM.
With `CC(C)(C)n1ncc(OCc2nnc(-c3ccc(Br)cc3)o2)c(Cl)c1=O` the logP [1] was 3.21, the EC50 (Mythimna separata; read-out: EC50) was 21.4 µg/mL and the EC50 (Mythimna separata; read-out: pEC50 (converted)) was 21.4 µM.
`CC(C)(C)n1ncc(OCc2nnc(-c3ccc(Cl)cc3Cl)o2)c(Cl)c1=O` gave a logP [1] of 3.52, an EC50 (Mythimna separata; read-out: EC50) of 27.8 µg/mL and an EC50 (Mythimna separata; read-out: pEC50 (converted)) of 27.8 µM.
`CC(C)(C)n1ncc(OCc2nnc(-c3ccccc3Cl)o2)c(Cl)c1=O` showed a logP [1] of 3.19, an EC50 (Mythimna separata; read-out: EC50) of 61.2 µg/mL and an EC50 (Mythimna separata; read-out: pEC50 (converted)) of 61.2 µM.
In the case of `CC(C)(C)n1ncc(OCc2nnc(-c3ccccc3)s2)c(Cl)c1=O`, the EC50 (Mythimna separata; read-out: EC50) is reported as 200 µg/mL and the EC50 (Mythimna separata; read-out: pEC50 (converted)) is reported as 200 µM.
For `CC(C)(C)n1ncc(OCc2nnc(-c3ccc(F)cc3)s2)c(Cl)c1=O`, the EC50 (Mythimna separata; read-out: EC50) was 21.5 µg/mL and the EC50 (Mythimna separata; read-out: pEC50 (converted)) was 21.5 µM.
`CC(C)(C)n1ncc(OCc2nnc(-c3ccccc3F)s2)c(Cl)c1=O` gave an EC50 (Mythimna separata; read-out: EC50) of 121 µg/mL and an EC50 (Mythimna separata; read-out: pEC50 (converted)) of 121 µM.
`CC(C)(C)n1ncc(OCc2nnc(-c3ccc(Cl)cc3)s2)c(Cl)c1=O` showed an EC50 (Mythimna separata; read-out: EC50) of 106 µg/mL and an EC50 (Mythimna separata; read-out: pEC50 (converted)) of 106 µM.
Work on `CC(C)(C)n1ncc(OCc2nnc(-c3ccc(Cl)cc3Cl)s2)c(Cl)c1=O` yielded an EC50 (Mythimna separata; read-out: EC50) of 62.2 µg/mL and an EC50 (Mythimna separata; read-out: pEC50 (converted)) of 62.2 µM.
`CC(C)(C)n1ncc(OCc2nnc(-c3cc(F)c(Cl)cc3Cl)s2)c(Cl)c1=O` showed an EC50 (Mythimna separata; read-out: EC50) of 67.1 µg/mL and an EC50 (Mythimna separata; read-out: pEC50 (converted)) of 67.1 µM.
For `Cc1cccc(-c2nnc(COc3cnn(C(C)(C)C)c(=O)c3Cl)s2)c1`, the EC50 (Mythimna separata; read-out: EC50) was over 300 µg/mL and the EC50 (Mythimna separata; read-out: pEC50 (converted)) was over 300 µM.
Compound `Cc1cc(C)cc(-c2nnc(COc3cnn(C(C)(C)C)c(=O)c3Cl)s2)c1` has an EC50 (Mythimna separata; read-out: EC50) of over 300 µg/mL and an EC50 (Mythimna separata; read-out: pEC50 (converted)) of over 300 µM.
`CC(C)(C)n1ncc(OCc2nnc(-c3c(F)cccc3F)o2)c(Cl)c1=O` showed a logP [1] of 2.75, an EC50 (Mythimna separata; read-out: EC50) of 45.4 µg/mL and an EC50 (Mythimna separata; read-out: pEC50 (converted)) of 45.4 µM.
`CC(C)(C)n1ncc(OCc2nnc(-c3cc(F)c(Cl)c([N+](=O)[O-])c3Cl)o2)c(Cl)c1=O` showed an EC50 (Mythimna separata; read-out: EC50) of over 300 µg/mL and an EC50 (Mythimna separata; read-out: pEC50 (converted)) of over 300 µM.
`CC(C)(C)n1ncc(OCc2nnc(-c3ccccc3)o2)c(Cl)c1=O` showed a logP [1] of 2.95, an EC50 (Mythimna separata; read-out: EC50) of 12.2 µg/mL and an EC50 (Mythimna separata; read-out: pEC50 (converted)) of 12.2 µM.
For `CC(C)(C)n1ncc(OCc2nnc(-c3ccc([N+](=O)[O-])cc3)o2)c(Cl)c1=O`, the EC50 (Mythimna separata; read-out: EC50) was over 300 µg/mL and the EC50 (Mythimna separata; read-out: pEC50 (converted)) was over 300 µM.
For `Cc1cccc(-c2nnc(COc3cnn(C(C)(C)C)c(=O)c3Cl)o2)c1`, the logP [1] was 3.02, the EC50 (Mythimna separata; read-out: EC50) was 116 µg/mL and the EC50 (Mythimna separata; read-out: pEC50 (converted)) was 116 µM.
With `Cc1cc(C)cc(-c2nnc(COc3cnn(C(C)(C)C)c(=O)c3Cl)o2)c1` the EC50 (Mythimna separata; read-out: EC50) was over 300 µg/mL and the EC50 (Mythimna separata; read-out: pEC50 (converted)) was over 300 µM.
For `Cc1ccc(-c2nnc(COc3cnn(C(C)(C)C)c(=O)c3Cl)o2)cc1`, the logP [1] was 3.01, the EC50 (Mythimna separata; read-out: EC50) was 19.9 µg/mL and the EC50 (Mythimna separata; read-out: pEC50 (converted)) was 19.9 µM.
Compound `CC(C)(C)n1ncc(OCc2nnc(-c3ccc(F)cc3)o2)c(Cl)c1=O` has a logP [1] of 2.69, an EC50 (Mythimna separata; read-out: EC50) of 5.2 µg/mL and an EC50 (Mythimna separata; read-out: pEC50 (converted)) of 5.2 µM.
`CCc1ccc(-c2nnc(COc3cnn(C(C)(C)C)c(=O)c3Cl)o2)cc1` gave a logP [1] of 3.52, an EC50 (Mythimna separata; read-out: EC50) of 14.5 µg/mL and an EC50 (Mythimna separata; read-out: pEC50 (converted)) of 14.5 µM.
Work on `CC(C)(C)n1ncc(OCc2nnc(-c3ccc(Cl)cc3)o2)c(Cl)c1=O` yielded a logP [1] of 3.09, an EC50 (Mythimna separata; read-out: EC50) of 1.9 µg/mL and an EC50 (Mythimna separata; read-out: pEC50 (converted)) of 1.9 µM.
Work on `COc1ccc(-c2nnc(COc3cnn(C(C)(C)C)c(=O)c3Cl)o2)cc1` yielded a logP [1] of 3.52, an EC50 (Mythimna separata; read-out: EC50) of 17.7 µg/mL and an EC50 (Mythimna separata; read-out: pEC50 (converted)) of 17.7 µM.
With `CC(C)(C)n1ncc(OCc2nnc(-c3cccc(F)c3)o2)c(Cl)c1=O` the logP [1] was 2.69, the EC50 (Mythimna separata; read-out: EC50) was 7.1 µg/mL and the EC50 (Mythimna separata; read-out: pEC50 (converted)) was 7.1 µM.
`C/C=C(\C)C(=O)O[C@H]1C[C@@H](OC(C)=O)[C@@]2(C(=O)OC)CO[C@H]3[C@@H](O)[C@@](C)([C@]45O[C@@]4(C)[C@@H]4C[C@H]5O[C@@H]5OC=C[C@@]54O)[C@H]4[C@]1(CO[C@]4(O)C(=O)OC)[C@@H]32` [AZADIRACHTIN A] showed an EC50 (Mythimna separata; read-out: EC50) of 0.58 µg/mL and an EC50 (Mythimna separata; read-out: pEC50 (converted)) of 0.579 µM.
